Assay results: patent publication US5070210A, “Novel ketenimines as intermediates for insecticides” (ICI Americas Inc., priority 1990, dated 1991)

Tests used:
Assay type in all cases: in vivo
[1] = tested on: Beet Armyworm (Spodoptera exigua); assay: Beet armyworm insecticidal test; details: second-instar larvae, percent in solution; five days
Description: The compounds in Tables 1 and 2 above were tested for insecticidal activity using the following testing procedures. LC50 values, based on the results of these tests and calculated according to dosage-mortality curves, are expressed in Table 3.
Beet Armyworm (Spodoptera exigua):
Test compounds were diluted in a 50-50 acetone-water solution. Young leaves of sugar beets (Beta vulgaris) were immersed in the test solutions for 2-3 seconds and placed on a wire screen to dry. The dried leaves were placed in petri dishes containing a moistened filter paper and infested with five second-instar beet armyworm larvae. The dishes were placed in a high humidity chamber. Mortality of the larvae was recorded five days later. Test concentrations ranged from 0.1% downward. The LC-50 values are expressed below in Table 3 under the heading "BAW" in terms of percent of the test compound in solution.

[2] = tested on: Maize weevil [Sitophilus Zeamais (Motschulsky)]; assay: Maize weevil insecticidal test; details: adult weevils, percent in solution; 48 hours
Summary of the method: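 LC50, in percent of compound in solution, was derived from dosage-mortality curves after 48 h at about 25 °C. Ten adult weevils per container fed on four corn seeds briefly immersed in acetone:water (50:50) solutions of up to 0.01% and dried.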

[3] = tested on: Tobacco Budworm [Heliothis virescens (Fabricius)] larvae; assay: Tobacco budworm contact test; details: second-instar larvae, percent in solution, 5 days
Summary of the method: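 Cotton cotyledons dipped 2–3 s in compound in 50-50 acetone-water, dried, then infested with 5 second-instar larvae and held 5 days at high humidity. Mortality scored; LC50 from dosage-mortality curves, expressed as percent compound in solution, concentrations from 0.1% downward.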

[4] = tested on: Aster Leafhopper [Macrosteles fascifrens (Stal)]; assay: Aster leafhopper insecticidal test; details: adults/nymphs, percent in solution; 48 hours
Summary of the method: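 Three ~10 cm oat seedlings per cup were dipped 2-3 seconds in 50-50 acetone-water compound solutions, dried, and caged with ten adult/nymph leafhoppers. Mortality was counted after 48 hours at concentrations from 0.05% downward. LC50, as percent compound in solution, came from dosage-mortality curves.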

[5] = tested on: Tobacco Budworm [Heliothis virescens (Fabricius)] eggs; assay: Tobacco budworm egg test; details: 2-day old eggs, percent in solution
Summary of the method: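 Step 1: dip 2-day old egg patches in acetone test solutions (top concentration 0.1%). Step 2: hold in dishes with rearing medium at 78° F. Step 3: record mortality after control hatch and feeding.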

[6] = tested on: Cabbage Looper [Trichoplusia ni (Hubner)]; assay: Cabbage looper insecticidal test; details: second-instar larvae, percent in solution; 3-5 days
Summary of the method: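 Squash cotyledons dipped in test solution (acetone-water 50-50, ≤0.1%), dried, offered to 5 second-instar larvae; mortality after 3-5 days gives LC50.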

[7] = tested on: Housefly [Musca domestica]; assay: Housefly insecticidal test; details: μg per 25 female flies; mortality after 48 hours
Summary of the method: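 Residual contact test: acetone dilution, 0.01% peanut oil spreader, solvent evaporated; 25 ♀ flies (1-2 d old) per cage; sugar-water plug; 48 h mortality read. LC50 in μg/25 female flies, from dose-mortality curves; top dose 100 μg/25 flies.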

| SMILES | LC50, BAW [1] [%] | LC50, MW [2] [%] | LC50, TBW, C (TBW-C) [3] [%] | LC50, LH [4] [%] | LC50, TBW, E (TBW-E) [5] [%] | LC50, CL [6] [%] | LC50, HF [7] [µg] |
| --- | --- | --- | --- | --- | --- | --- | --- |
| CC(=Nc1ccccc1)OCc1cccc(Oc2ccccc2)c1 [Compound 42] | > 0.1 | > 0.01 | > 0.1 | > 0.05 | > 0.1 | > 0.1 | 45 |
| FC(F)(F)c1ccc(N=C(OCc2cccc(Oc3ccccc3)c2)C2CC2)cc1 [Compound 62] | 0.02 | > 0.01 | 0.0015 | > 0.05 | 0.025 | 0.005 | 20 |
| CC(C)C(=Nc1ccc(F)c(F)c1F)OCc1cccc(Oc2ccc(F)cc2)c1 [Compound 348] | > 0.1 | > 0.01 | 0.00075 | 0.05 | > 0.1 | 0.0002 | 8 |
| CC(C)C(=Nc1cccc(C(F)(F)F)c1)OCc1ccc(F)c(Oc2ccc(F)cc2)c1 [Compound 268] | 0.001 | > 0.01 | 0.0005 | 0.0005 | 0.023 | 0.000025 | 4 |
| Clc1cccc(N=C(OCc2cccc(Oc3ccccc3)c2)C(Cl)Cl)c1 [Compound 1] | 0.009 | > 0.01 | 0.06 | > 0.05 | 0.05 | 0.005 | 4.8 |
| Clc1ccc(N=C(OCc2cccc(Oc3ccccc3)c2)C(Cl)Cl)cc1 [Compound 29] | 0.003 | > 0.01 | 0.001 | 0.003 | 0.01 | 0.002 | 5 |
| FC(F)(F)Oc1ccc(N=C(OCc2cccc(Oc3ccccc3)c2)C(Cl)Cl)cc1 [Compound 64] | 0.0025 | > 0.01 | 0.1 | > 0.05 | 0.03 | 0.0025 | 11 |
| CC(Cl)C(=Nc1ccc(Cl)cc1)OCc1cccc(Oc2ccccc2)c1 (stereo not drawn) [Compound 33] | 0.02 | > 0.01 | 0.0025 | > 0.05 | > 0.1 | 0.01 | 17 |
| CC(C)C(=Nc1ccc2c(c1)OCO2)OCc1cccc(Oc2ccc(F)cc2)c1 [Compound 176] | 0.0035 | 0.009 | 0.002 | > 0.05 | 0.05 | 0.0005 | 1.8 |
| Clc1ccc(N=C(OCc2cccc(Oc3ccccc3)c2)C2CC2)cc1 [Compound 32] | 0.03 | > 0.01 | 0.006 | > 0.05 | 0.1 | 0.003 | 37 |
| CC(C)C(=Nc1cccc(Cl)c1)OCc1cccc(Oc2ccc(Cl)cc2)c1 [Compound 270] | 0.005 | > 0.01 | > 0.0015 | 0.003 | > 0.01 | 0.00025 | 12 |
| CC(Cl)(Cl)C(=Nc1ccc(Cl)cc1)OCc1cccc(Oc2ccccc2)c1 [Compound 3] | 0.015 | > 0.01 | 0.009 | > 0.05 | > 0.1 | 0.012 | 50 |
